Molecules are shown by their SMILES.

The target of the assay is T1, RHOA (Homo sapiens, UniProt P61586).
T1 construct: commercial RHOA protein (Sigma-Aldrich SRP5127), immobilized on CMDH gold chip
T1 sequence (P61586 whole entry): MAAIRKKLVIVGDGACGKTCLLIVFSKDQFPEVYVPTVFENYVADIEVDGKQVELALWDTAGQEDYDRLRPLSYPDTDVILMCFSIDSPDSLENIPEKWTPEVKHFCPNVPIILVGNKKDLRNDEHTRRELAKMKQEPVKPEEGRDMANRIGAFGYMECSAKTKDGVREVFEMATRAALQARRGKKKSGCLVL
The assay can be described thus: surface plasmon resonance, immobilized RHOA (Reichert SR7500DC). It is filed as binding. On the technique in general: In SPR one partner is held on a chip, and binding of the other changes the refractive index at the surface.
For the molecule `O=S(=O)(N/N=C/c1ccc2c(c1)OCO2)c1ccccc1` [JK-121], the Kd came to 67 ± 3 µM. Regarding `O=C(N/N=C/c1ccc2c(c1)OCO2)c1ccccc1` [JK-122], the Kd worked out at 6.9 ± 0.4 µM.

Consider `O=C(N/N=C/c1ccc2c(c1)OCO2)c1ccncc1` [JK-123], for which the Kd is 16.3 ± 0.4 µM. Compared with the last molecule, the Kd is about 2.4-fold higher. The molecule `O=C(N/N=C/c1ccc2c(c1)OCO2)c1ccc(O)cc1` [JK-124] registered a Kd of 44 ± 2 µM. The molecule `CC(=O)N/N=C/c1ccc2c(c1)OCO2` [JK-125] gave a Kd of 8.7 ± 6 µM.

As a reminder, the Kd is the concentration at which binding is half-saturated. Higher therefore signals a looser complex.

These data come from article PMC5348404, “Systematic approach identifies RHOA as a potential biomarker therapeutic target for Asian gastric cancer” (Oncotarget, 2016).
